Patent US20030206968A1, “Fungicidal mixtures” (priority 1999, published 2003)
Read-outs that look alike come from different tables or passages of the source.

Assays:
Type in all cases: in vivo
Puccinia recondita [1] = test: Greenhouse, Puccinia recondita on wheat, 1 day residual; conditions: for pest or weed control at 0.06 ppm / pest or weed control at 0.25 ppm / pest or weed control at 1 ppm / pest or weed control at 4 ppm: Puccinia recondita, read-out: Observed Efficacy
Source text: (§1) The fungicides are applied in single treatments, or in a combination comprising an azolopyrimidine of formula I and a compound selected from the classes (A), (B) and (C) as defined above. The compounds are applied in form of an aqueous spray mix obtained from a concentrated formulation or the technical material.
(§2) 1. Seed is planted in 6 cm diameter plastic pots and maintained in the greenhouse.
(§3) 2. When the primary leaf is fully expanded in the case of cereals or several leaves are present in the case of dicots, formulated test compounds are sprayed with a three nozzle overhead fungicide sprayer to near run-off. Alternatively, a single nozzle overhead track sprayer is used for application of the compounds to cereals at a rate of 200 l/ha. Plants are then allowed to air-dry.
(§4) 3. Inoculation precedes treatment in the case of curative evaluations and follows treatment in case of residual evaluations. For inoculation of powdery mildew disease, plants are set up on greenhouse benches with bottom watering mats and inoculated by dusting them with conidia from infected plants. Between inoculation and treatment for curative evaluations and between treatment and inoculation for residual evaluations, plants are maintained in the greenhouse with bottom watering.
(§5) For inoculation of non-powdery mildew diseases, an aqueous spore suspension of the pathogen is applied to the plant and the plants are kept 1-2 days in a moist infection chamber before being returned to the greenhouse where they are maintained by bottom watering.
(§6) 4. Disease on the foliage as percent leaf area with disease symptoms/signs is evaluated about 7 days after inoculation. In the case of wheat, the tips and bases of the leaves are excluded from the evaluation. [formula]
(§7) 1. Technical compounds are formulated in a solvent/surfactant system consisting of 5% acetone and 0.05% Tween 20 in deionized water. Compounds are dissolved in acetone prior to addition of the water; the Tween 20 can be added through either the acetone or the water. Dilutions are made using the solvent/surfactant system. Formulated compounds are prepared using deionized water.
(§8) 2. Two kinds of controls are included: Plants treated with the solvent/surfactant solution and inoculated (Solvent Blank). Untreated plants which are inoculated (Inoculated Control).
(§9) Assessments of the diseases took place at the indicated day after the application of the compounds. Per cent infected leaf area infected was evaluated. The efficacy of the compounds/compounds mixtures to control the diseases was calculated by using the formula given above under item 4: […]
(§10) Synergy was calculated using the % disease control values of specific treatments for the two COLBY formula given hereinabove
Fungicidal efficacy of the mixture of Azolopyrimidine C+metconazole (1 day residual) against Puccinia recondita on wheat The tank mix was obtained from a SC formulation containing 100 g Azolopyrimidine C per liter and an EC containing 100 g metconazole per liter. […]
Fungicidal efficacy of the mixture of Azolopyrimidine C+fluazinam (1 day residual) against Puccinia recondita on wheat The tank mix was obtained from technical material of Azolopyrimidine C and a SC formulation containing 500 g fluazinam per liter. […]

Blumeria graminis [2] = test: Greenhouse, Blumeria graminis on wheat, 1 day residual
Source text: as §1, §2, §3, §4, §6, §7, §8, §9, §10
Fungicidal efficacy of the mixture of Azolopyrimidine C+quinoxyfen (1 day residual)) against Blumeria graminis on wheat The tank mix was obtained from technical material of Azolopyrimidine C and quinoxyfen.
Fungicidal efficacy of the mixture of Azolopyrimidine C+metalaxyl (1 day residual) against Blumeria graminis on wheat The tank mix was obtained from technical material of Azolopyrimidine C and metalaxyl.
Fungicidal efficacy of the mixture of Azolopyrimidine C+famoxadone (1 day residual) against Blumeria graminis on wheat The tank mix was obtained from technical material of Azolopyrimidine C and famoxadone.

Blumeria graminis [3] = test: Greenhouse, Blumeria graminis on barley, 2 days curative
Experimental: as §1, with “The trials are carried out under greenhouse (Examples 1 to 32) or field conditions (Examples 33 to 40) in residual or curative applications. The fungicides” for “The fungicides”
as §2, §3, §4, §6, §7, §8, §9, §10
Fungicidal efficacy of the mixture of (S)-Azolopyrimidine C in admixture with Fenhexamid (2 days curative) against Blumeria graminis on barley. The tank mixes were obtained from technical material of (S)-Azolopyrimidine C and Fenhexamid.
Fungicidal efficacy of the mixture of (S)-Azolopyrimidine C in admixture with Azoxystrobin or Trifloxystrobin (2 days curative) against Blumeria graminis on barley. The tank mixes were obtained from technical material of (S)-Azolopyrimidine C and Azoxystrobin or Trifloxystrobin.

Botrytis cinerea = test: Apple fruit Botrytis test, Botrytis cinerea on apple fruits, 3 day residual
Experimental: 1. Apples (Malus X domestica Borkh.) variety Golden Delicious are disinfected by washing them briefly in 70% ethanol. After drying the apples are marked with four short equal-distant lines indicating the positions to be wounded.
2. Corresponding with the marks, four holes are poked around the apple equator with a pipette tip. 10 μl of the treatment solution are pipetted into each hole.
3. Three hours after application, 10 μl of a conidial suspension of Botrytis cinerea are pipetted into each. For incubation, the treated/inoculated apples are set up for five days.
4. Disease occurs as rotten apple tissue surrounding the inoculated wounds. The diameter of the rotten zone around each wound is measured.
1. Technical compounds are formulated in a solvent system consisting of 5% acetone and 0.05% Tween 20 in deionized water. Compounds are dissolved in acetone prior to dilution with water. Formulated compounds are prepared using deionized water.
2. Three kinds of controls are included:
Assessments of the diseases took place at the indicated day after the application of the compounds. Per cent infected leaf area infected was evaluated. The efficacy of the compounds/compounds mixtures to control the diseases was calculated by using the formula: [formula]
as §10
Fungicidal efficacy of the mixture of Azolopyrimidine A+vinclozolin (3 day residual) against Botrytis cinerea on apple fruits The tank mix was obtained from technical material of Azolopyrimidine A and a WG formulation containing 500 g vinclozolin per kg.
Fungicidal efficacy of the mixture of Azolopyrimidine A+cyprodinil (3 day residual) against Botrytis cinerea on apple fruits The tank mix was obtained from technical material of Azolopyrimidine A and a WG formulation containing 750 g cyprodinil per kg.
Fungicidal efficacy of the mixture of Azolopyrimidine A+benomyl (3 day residual) against Botrytis cinerea on apple fruits The tank mix was obtained from technical material of Azolopyrimidine A and a WP formulation containing 500 g benomyl per kg.

Blumeria graminis [4] = test: Greenhouse, Blumeria graminis on wheat, 2 days curative; conditions: Example 27
Experimental: as §1, with “The trials are carried out under greenhouse (Examples 1 to 32) or field conditions (Examples 33 to 40) in residual or curative applications. The fungicides” for “The fungicides”
as §2, §3, §4, §6, §7, §8, §9, §10
Fungicidal efficacy of the mixture of (S)-Azolopyrimidine C in admixture with Azoxystrobin or Trifloxystrobin (2 days curative) against Blumeria graminis on wheat. The tank mixes were obtained from technical material of (S)-Azolopyrimidine C and Azoxystrobin or Trifloxystrobin.

Puccinia recondita [5] = test: Greenhouse, Puccinia recondita on wheat, 4 days residual; conditions: Example 31
Experimental: as §1, with “The trials are carried out under greenhouse (Examples 1 to 32) or field conditions (Examples 33 to 40) in residual or curative applications. The fungicides” for “The fungicides”
as §2, §3, §4, §5, §6, §7, §8, §9, §10
Fungicidal efficacy of the mixture of (S)-Azolopyrimidine C in admixture with Azoxystrobin or Trifloxystrobin (4 days residual) against Puccinia recondita on wheat. The tank mixes were obtained from technical material of (S)-Azolopyrimidine C and Azoxystrobin or Trifloxystrobin.

Puccinia recondita [6] = test: Greenhouse, Puccinia recondita on wheat, 2 days curative; conditions: Example 28
Experimental: as §1, with “The trials are carried out under greenhouse (Examples 1 to 32) or field conditions (Examples 33 to 40) in residual or curative applications. The fungicides” for “The fungicides”
as §2, §3, §4, §5, §6, §7, §8, §9, §10
Fungicidal efficacy of the mixture of (S)-Azolopyrimidine C in admixture with Azoxystrobin or Trifloxystrobin (2 days curative) against Puccinia recondita on wheat. The tank mixes were obtained from technical material of (S)-Azolopyrimidine C and Azoxystrobin or Trifloxystrobin.

Blumeria graminis [7] = test: Greenhouse, Blumeria graminis on wheat, 4 days residual; conditions: Example 30
Experimental: as §1, with “The trials are carried out under greenhouse (Examples 1 to 32) or field conditions (Examples 33 to 40) in residual or curative applications. The fungicides” for “The fungicides”
as §2, §3, §4, §6, §7, §8, §9, §10
Fungicidal efficacy of the mixture of (S)-Azolopyrimidine C in admixture with Azoxystrobin or Trifloxystrobin (4 days residual) against Blumeria graminis on wheat. The tank mixes were obtained from technical material of (S)-Azolopyrimidine C and Azoxystrobin or Trifloxystrobin.

C[C@@]1(c2ccc(Oc3ccccc3)cc2)OC(=O)N(Nc2ccccc2)C1=O (racemic) [famoxadone]
pest or weed control at 0.06 ppm (Puccinia recondita [1]; Example 19, dose rate 0.06 ppm): 0% | pest or weed control at 0.25 ppm (Puccinia recondita [1]; Example 19, dose rate 0.25 ppm): 0% | pest or weed control at 1 ppm (Puccinia recondita [1]; Example 19, dose rate 1 ppm): 31% | pest or weed control at 4 ppm (Puccinia recondita [1]; Example 19, dose rate 4 ppm): 61% | Observed Efficacy (Blumeria graminis [2]; Example 18, dose rate 0.06 ppm): 0% | Observed Efficacy (Blumeria graminis [2]; Example 18, dose rate 0.25 ppm): 0% | Observed Efficacy (Blumeria graminis [2]; Example 18, dose rate 1 ppm): 0% | Observed Efficacy (Blumeria graminis [2]; Example 18, dose rate 4 ppm): 0%

CC1(C(=O)Nc2ccc(O)c(Cl)c2Cl)CCCCC1 [Fenhexamid]
Observed Efficacy (Blumeria graminis [3]; Example 26, dose rate 0.74 ppm): 0% | Observed Efficacy (Blumeria graminis [3]; Example 26, dose rate 2.2 ppm): 0% | Observed Efficacy (Blumeria graminis [3]; Example 26, dose rate 6.7 ppm): 0% | Observed Efficacy (Blumeria graminis [3]; Example 26, dose rate 20 ppm): 1% | Observed Efficacy (Blumeria graminis [3]; Example 26, dose rate 60 ppm): 7% | Observed Efficacy (Blumeria graminis [3]; Example 26, dose rate 180 ppm): 39%

CCCCNC(=O)n1c(NC(=O)OC)nc2ccccc21 [benomyl]
Observed Efficacy (Botrytis cinerea; Example 6, dose rate 1 ppm): 0% | Observed Efficacy (Botrytis cinerea; Example 6, dose rate 10 ppm): 13%

CC1=C(C(=O)Nc2ccccc2)SCCO1 [carboxin]
pest or weed control at 0.06 ppm (Puccinia recondita [1]): 0% | pest or weed control at 0.25 ppm (Puccinia recondita [1]): 0% | pest or weed control at 1 ppm (Puccinia recondita [1]): 0% | pest or weed control at 4 ppm (Puccinia recondita [1]): 4%

[Cl-].[Cu+2].[Cu+2].[OH-].[OH-].[OH-] [copper oxychloride]
Observed Efficacy (Puccinia recondita [1]; Example 21, dose rate 0.06 ppm): 0%

CCCCCCCCCCCCNC(=N)N [dodine]
pest or weed control at 0.06 ppm (Puccinia recondita [1]): 0%

O=[N+]([O-])c1cc(C(F)(F)F)c(Cl)c([N+](=O)[O-])c1Nc1ncc(C(F)(F)F)cc1Cl [fluazinam]
pest or weed control at 0.06 ppm (Puccinia recondita [1]; Example 14, dose rate 0.06 ppm): 0% | pest or weed control at 1 ppm (Puccinia recondita [1]; Example 14, dose rate 1 ppm): 4% | pest or weed control at 4 ppm (Puccinia recondita [1]; Example 14, dose rate 4 ppm): 17%

COCC(=O)N(c1c(C)cccc1C)C(C)C(=O)OC (centres unmarked) [metalaxyl]
Observed Efficacy (Blumeria graminis [2]; Example 17, dose rate 0.06 ppm): 0% | Observed Efficacy (Blumeria graminis [2]; Example 17, dose rate 0.25 ppm): 0% | Observed Efficacy (Blumeria graminis [2]; Example 17, dose rate 1 ppm): 0% | Observed Efficacy (Blumeria graminis [2]; Example 17, dose rate 4 ppm): 0%

Fc1ccc(Oc2ccnc3cc(Cl)cc(Cl)c23)cc1 [quinoxyfen]
pest or weed control at 0.06 ppm (Puccinia recondita [1]; Example 15, dose rate 0.06 ppm): 0% | pest or weed control at 0.25 ppm (Puccinia recondita [1]; Example 15, dose rate 0.25 ppm): 0% | pest or weed control at 1 ppm (Puccinia recondita [1]; Example 15, dose rate 1 ppm): 0% | pest or weed control at 4 ppm (Puccinia recondita [1]; Example 15, dose rate 4 ppm): 0% | Observed Efficacy (Blumeria graminis [2]; Example 16, dose rate 0.06 ppm): 8% | Observed Efficacy (Blumeria graminis [2]; Example 16, dose rate 0.25 ppm): 18% | Observed Efficacy (Blumeria graminis [2]; Example 16, dose rate 1 ppm): 73% | Observed Efficacy (Blumeria graminis [2]; Example 16, dose rate 4 ppm): 99%

S1SSSSSSS1 [sulfur]
pest or weed control at 1 ppm (Puccinia recondita [1]; Example 22, dose rate 1 ppm): 0%

C=CC1(C)OC(=O)N(c2cc(Cl)cc(Cl)c2)C1=O (centres unmarked) [vinclozolin]
Observed Efficacy (Botrytis cinerea; Example 4, dose rate 10 ppm): 8% | Observed Efficacy (Botrytis cinerea; Example 7, dose rate 1 ppm): 0% | Observed Efficacy (Botrytis cinerea; Example 7, dose rate 10 ppm): 17%

Trifloxystrobin
Observed Efficacy (Blumeria graminis [3]; Example 29, dose rate 1.6 ppm): 22% | Observed Efficacy (Blumeria graminis [3]; Example 29, dose rate 3.1 ppm): 36% | Observed Efficacy (Blumeria graminis [3]; Example 29, dose rate 6.3 ppm): 59% | Observed Efficacy (Blumeria graminis [3]; Example 29, dose rate 12.5 ppm): 74% | Observed Efficacy (Blumeria graminis [3]; Example 29, dose rate 25 ppm): 89% | Observed Efficacy (Blumeria graminis [3]; Example 29, dose rate 50 ppm): 96% | Observed Efficacy (Blumeria graminis [4]; dose rate 1.6 ppm): 34% | Observed Efficacy (Blumeria graminis [4]; dose rate 3.1 ppm): 55% | Observed Efficacy (Blumeria graminis [4]; dose rate 6.3 ppm): 78% | Observed Efficacy (Blumeria graminis [4]; dose rate 12.5 ppm): 89% | Observed Efficacy (Blumeria graminis [4]; dose rate 25 ppm): 98% | Observed Efficacy (Blumeria graminis [4]; dose rate 50 ppm): 99% | Observed Efficacy (Puccinia recondita [5]; dose rate 3.1 ppm): 0% | Observed Efficacy (Puccinia recondita [5]; dose rate 6.3 ppm): 0% | Observed Efficacy (Puccinia recondita [5]; dose rate 12.5 ppm): 0% | Observed Efficacy (Puccinia recondita [5]; dose rate 25 ppm): 0% | Observed Efficacy (Puccinia recondita [5]; dose rate 50 ppm): 0% | Observed Efficacy (Puccinia recondita [6]; dose rate 1.6 ppm): 0% | Observed Efficacy (Puccinia recondita [6]; dose rate 3.1 ppm): 0% | Observed Efficacy (Puccinia recondita [6]; dose rate 6.3 ppm): 0% | Observed Efficacy (Puccinia recondita [6]; dose rate 12.5 ppm): 0% | Observed Efficacy (Puccinia recondita [6]; dose rate 25 ppm): 0% | Observed Efficacy (Blumeria graminis [7]; dose rate 3.1 ppm): 0% | Observed Efficacy (Blumeria graminis [7]; dose rate 6.3 ppm): 0% | Observed Efficacy (Blumeria graminis [7]; dose rate 12.5 ppm): 0% | Observed Efficacy (Blumeria graminis [7]; dose rate 25 ppm): 0% | Observed Efficacy (Blumeria graminis [7]; dose rate 50 ppm): 14%
